Results taken from article PMC11684006, “A Putative Frizzled 7-Targeting Compound Acts as a Firefly Luciferase Inhibitor” (Journal of Medicinal Chemistry, 2024).

Target: T1, Firefly luciferase (Fluc) (Photinus pyralis, UniProt P08659)
T1 construct: Fluc amplified from the Super8X TOPFlash reporter plasmid, constitutively expressed under a CMV promoter
Assay: Fluc bioluminescence in lysates of compound-treated ΔFZD1–[…] HEK293T cells expressing CMV-driven Fluc (counter assay); Rluc and Nluc unaffected
Format: cell-based

T1 sequence (P08659 whole entry): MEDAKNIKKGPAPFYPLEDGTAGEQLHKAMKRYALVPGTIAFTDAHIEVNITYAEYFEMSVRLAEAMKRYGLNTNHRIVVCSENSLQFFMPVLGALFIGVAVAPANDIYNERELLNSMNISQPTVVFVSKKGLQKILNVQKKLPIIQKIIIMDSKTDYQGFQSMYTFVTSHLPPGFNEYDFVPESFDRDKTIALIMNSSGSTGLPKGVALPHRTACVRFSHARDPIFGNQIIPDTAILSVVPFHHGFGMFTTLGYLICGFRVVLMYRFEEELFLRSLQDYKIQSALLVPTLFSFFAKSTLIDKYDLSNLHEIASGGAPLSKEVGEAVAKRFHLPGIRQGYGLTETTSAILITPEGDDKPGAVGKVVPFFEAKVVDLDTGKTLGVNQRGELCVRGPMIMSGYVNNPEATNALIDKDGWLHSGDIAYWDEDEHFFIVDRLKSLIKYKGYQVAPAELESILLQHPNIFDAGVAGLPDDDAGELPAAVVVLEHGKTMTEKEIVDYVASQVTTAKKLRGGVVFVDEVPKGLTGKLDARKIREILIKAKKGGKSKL

IC50: 25 nM
SMILES: Cc1ccc(C(=O)Nc2ccc(SCC(=O)Nc3nc(-c4ccccc4)cs3)cc2)c(C)c1 [compound 3, 2,4-Dimethyl-N-(4-((2-oxo-2-((4-phenylthiazol-2-yl)amino)ethyl)thio)phenyl)benzamide]
